Laboratory results: publication PMC12675575, “A BRET biosensor for measuring uncompetitive engagement of PRMT5 complexes in cells” (Nature Communications, 2025)
Values joined by “and” are separate entries in the source; they are usually repeats but may differ in a detail not shown here. Equal values may be shown once. Read-outs that look alike come from different tables or passages of the source. Values belong to the compound of their own block, whether it stands above or below them.

Experiments:
[1] = tested on: SDMA in MTAP WT cells; parameters: method as in ref 9 (a number printed in a supplementary file, which may have a reference list of its own: not looked up in the article's list); details: read-out: In-Cell Western (nM), SDMA EC50; cited from earlier work
[2] = tested on: PRMT5–MEP50; details: cited from earlier work; for IC50: read-out: Biochemical (nM), IC50
[3] = target: PRMT5/MEP50; parameters: method as in ref 7,8 (a number printed in a supplementary file, which may have a reference list of its own: not looked up in the article's list); details: 20 μM SAM preincubation; read-out: SPR; cited from earlier work
[4] = tested on: SDMA in MTAP del cells; parameters: method as in ref 7,8 (a number printed in a supplementary file, which may have a reference list of its own: not looked up in the article's list); details: read-out: In-Cell Western (nM), SDMA IC50; cited from earlier work
[5] = tested on: SDMA in MTAP WT cells; parameters: method as in ref 7,8 (a number printed in a supplementary file, which may have a reference list of its own: not looked up in the article's list); details: read-out: In-Cell Western (nM), SDMA IC50; cited from earlier work
[6] = tested on: MTAP del cell lines; parameters: method as in ref 7,8 (a number printed in a supplementary file, which may have a reference list of its own: not looked up in the article's list); details: 10 day viability, read-out: Proliferation (nM), IC50; cited from earlier work
[7] = tested on: MTAP WT cell lines; parameters: method as in ref 7,8 (a number printed in a supplementary file, which may have a reference list of its own: not looked up in the article's list); details: 10 day viability, read-out: Proliferation (nM), IC50; cited from earlier work
[8] = tested on: PRMT5; details: 3H-SAM to peptide substrate; read-out: Biochemical (nM), IC50; cited from earlier work
[9] = target: PRMT5:MEP50 complex; parameters: method as in ref 4 (a number printed in a supplementary file, which may have a reference list of its own: not looked up in the article's list); details: read-out: SPR (pM), Kd; cited from earlier work
[10] = tested on: SmBB' dimethylation in MCF7 cells; parameters: method as in ref 4 (a number printed in a supplementary file, which may have a reference list of its own: not looked up in the article's list); details: read-out: In-Cell Western (nM), EC50; cited from earlier work
[11] = target: NanoLuc-PRMT5 co-expressed with WDR77 (Homo sapiens, UniProt O14744); test: Live-cell NanoBRET target engagement with BRET probe CBH-002 in HEK293 cells expressing NanoLuc-PRMT5 and unlabeled WDR77; assay type: cell-based; parameters: host or cells: HEK293; details: for EC50: HEK293, competitive displacement of CBH-002, 2 h, n=3
Experimental: HEK293 cells (ATCC) were cultured in DMEM (Thermo Fisher) + 10% (v/v) FBS (Seredigm), and HCT116 cells (Horizon Discovery, #PAR-034 and #R02-033) were cultured in McCoy’s 5A (Thermo Fisher) + 10% FBS, with incubation in a humidified, 37 °C/5% CO2 incubator. Cells were split 1–3 days prior to performing experiments and used at roughly 80% confluency. […] Cells were transfected according to the manufacturer’s protocol using FuGENE HD (Promega). NanoLuc fusion DNA was diluted into Transfection Carrier DNA (Promega) in Opti-MEM at a ratio of 1:9 (mass/mass), and FuGENE HD was added at a ratio of 1:3 (μg DNA:μL lipid). […] Formed complexes were combined with cells resuspended to a density of 2 × 10^5 cells/mL in Opti-MEM + 1% FBS at a ratio of 1:20 (vol:vol). […] Cells were seeded at a density of 2 × 10^5 cells/mL in Opti-MEM + 1% FBS in 100 μL (96-well). The BRET probe CBH-002 was prepared first as a 100× stock in 100% DMSO (Sigma) and then diluted to a 20× stock in NanoBRET Tracer Dilution buffer (Promega). Test compounds were prepared as 1000× stocks in 100% DMSO and diluted to 10× stocks in Opti-MEM to prepare working stocks. […] NanoBRET Complete 3x Substrate was prepared by combining Nano-Glo Substrate and Extracellular NanoLuc Inhibitor in Opti-MEM, according to the manufacturer’s protocol (Promega).
BRET ratio values were calculated by dividing the acceptor by the donor signal, and raw BRET was converted to milli-BRET (mBRET) units (mBu) by multiplying by 1000.
EC50 values were obtained by fitting the BRET probe and compound affinity curves to a sigmoidal four-parameter fit model in Graphpad Prism:1 Y=Ymin+Ymax−Ymin/1+10^LogEC50−Xh where h is the Hill Slope.
When normalized BRET was used, mBRET values were normalized using2 NormalizedBRET%=(Y−BRETmin)/BRETmax−BRETmin where y = mBRET in the presence of test compound and BRET probe, BRETmin = mBRET at the highest concentration (saturating) of test compound and BRET probe, and BRETmax = mBRET in the presence of vehicle (DMSO) and BRET probe.
Normalized concentration-response curves showing full competition were fit using a 2-parameter model:3 Y=100/1+10^LogEC50−Xh
In situations where only partial competition was observed, the normalized concentration-response curves were fit using Eq. 1 and where Ymin was constrained to >0.

[12] = target: NLuc-PRMT5 co-expressed with WDR77 (Homo sapiens, UniProt O14744); test: Compound EC50 titrations against MTA, NanoBRET in HEK293 (NLuc-PRMT5 + WDR77), with global Gaddum/Schild or Morrison fits; details: for Schild slope: Global Gaddum/Schild EC50 shift fit, MTA titration; for Right-shift in binding/potency on addition of MTA: HEK293, 300 µM exogenous MTA; for EC50 fold change (EC50 at 300 μM MTA versus vehicle): negative = enhanced potency under high MTA; for Hill slope (Global/Schild fit): constant across [MTA], constrained to 1 for PF06939999 and GSK3326595
Experimental: MTA (Sigma) was prepared at 100× in 100% DMSO and diluted to 10× in Opti-MEM. Inhibitors were run as 11 pt, 3-fold dilution curves and MTA as a seven point, 3-fold dilution curve starting at 100 μM. Cells were incubated for 2 h at 37 °C and 5% CO2 prior to BRET measurements. Data was normalized using Eq. (2) where BRETMIN = saturating compound + maximum [MTA], and BRETMAX = BRET signal under vehicle conditions. Curves were fit using Eq. (3), and EC50 values were plotted against MTA concentration to determine the linear range of MTA detection.

[13] = target: PRMT5; parameters: method as in ref 5,6 (a number printed in a supplementary file, which may have a reference list of its own: not looked up in the article's list); details: single-cycle kinetic analysis; read-out: SPR (pM), Kd; cited from earlier work
[14] = tested on: SDMA levels in A427; parameters: method as in ref 5,6 (a number printed in a supplementary file, which may have a reference list of its own: not looked up in the article's list); details: read-out: In-Cell Western (nM), IC50; cited from earlier work

Sequence of NLuc-PRMT5 co-expressed with WDR77 (O14744 whole entry): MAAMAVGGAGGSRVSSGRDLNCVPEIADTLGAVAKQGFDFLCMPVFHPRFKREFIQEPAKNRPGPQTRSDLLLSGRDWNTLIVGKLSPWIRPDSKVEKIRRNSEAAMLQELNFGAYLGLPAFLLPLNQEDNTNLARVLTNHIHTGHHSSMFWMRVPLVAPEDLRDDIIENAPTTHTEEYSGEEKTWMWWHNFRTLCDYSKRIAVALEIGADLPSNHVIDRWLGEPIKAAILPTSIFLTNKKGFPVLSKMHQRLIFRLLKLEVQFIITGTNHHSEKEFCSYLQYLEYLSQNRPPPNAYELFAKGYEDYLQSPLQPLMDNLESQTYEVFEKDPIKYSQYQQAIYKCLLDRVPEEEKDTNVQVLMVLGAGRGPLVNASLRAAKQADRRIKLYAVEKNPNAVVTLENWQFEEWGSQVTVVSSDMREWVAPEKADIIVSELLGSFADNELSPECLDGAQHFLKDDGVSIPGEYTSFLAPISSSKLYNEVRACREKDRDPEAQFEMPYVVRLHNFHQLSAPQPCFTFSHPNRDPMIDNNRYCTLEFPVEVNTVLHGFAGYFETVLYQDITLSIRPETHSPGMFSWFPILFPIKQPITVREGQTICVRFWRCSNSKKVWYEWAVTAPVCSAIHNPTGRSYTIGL
Sequence of NLuc-PRMT5 co-expressed with WDR77 (Q9BQA1 whole entry partner): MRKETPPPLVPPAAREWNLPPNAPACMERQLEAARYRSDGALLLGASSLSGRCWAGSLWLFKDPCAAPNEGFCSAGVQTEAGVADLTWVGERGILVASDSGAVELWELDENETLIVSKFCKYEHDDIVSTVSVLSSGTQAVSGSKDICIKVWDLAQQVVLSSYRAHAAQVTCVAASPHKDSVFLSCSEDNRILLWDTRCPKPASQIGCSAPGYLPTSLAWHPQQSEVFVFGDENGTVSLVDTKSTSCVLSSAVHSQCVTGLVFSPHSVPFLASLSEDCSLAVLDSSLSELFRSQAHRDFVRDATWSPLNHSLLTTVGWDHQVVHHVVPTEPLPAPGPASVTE
Sequence of NanoLuc-PRMT5 co-expressed with WDR77 (O14744 whole entry, the tested form may be a part): as the sequence (O14744 whole entry) above
Sequence of NanoLuc-PRMT5 co-expressed with WDR77 (Q9BQA1 whole entry partner, the tested form may be a part): as the sequence (Q9BQA1 whole entry partner) above

SMILES: Cc1cc(NC(=O)C(=O)N2CC(C)CCC2c2ccc3scnc3c2)cnc1N (centres unmarked) [TNG908]
EC50 [1]: 135 nM

SMILES: Cn1ncc(-c2ccc3c(=O)[nH]nc(CN)c3c2)c1-c1c(F)c(Cl)cc(OC2CC2)c1C#N [MRTX1719]
IC50 ([2]; MTA): 3.6 nM
IC50 ([2]; SAM): 20.4 nM
Enhancement of biochemical IC50 in the presence of MTA [2]: 5 fold
Kd [3]: 9.4 pM
IC50 [4]: 8 nM
IC50 [5]: 653 nM
IC50 [6]: 12 nM
IC50 [7]: 890 nM

remaining activity at […] ([11]; HEK293, log([compound]), uM 0.0458, vehicle = 100, read-out: Normalized BRET, Bio rep 1-3): 34%
remaining activity at […] ([11]; HEK293, log([compound]), uM 0.52, vehicle = 100, read-out: Normalized BRET, Bio rep 1-3): 24.1%
remaining activity at 0.3715 µM ([11]; HEK293, log([compound]), uM -0.43, vehicle = 100, read-out: Normalized BRET, Bio rep 1-3): 53.7%
remaining activity at […] ([11]; HEK293, log([compound]), uM -0.91, vehicle = 100, read-out: Normalized BRET, Bio rep 1-3): 66.1%
remaining activity at 0.04074 µM ([11]; HEK293, log([compound]), uM -1.39, vehicle = 100, read-out: Normalized BRET, Bio rep 1-3): 81.4%
remaining activity at 0.0138 µM ([11]; HEK293, log([compound]), uM -1.86, vehicle = 100, read-out: Normalized BRET, Bio rep 1-3): 91.4%
remaining activity at 0.004571 µM ([11]; HEK293, log([compound]), uM -2.34, vehicle = 100, read-out: Normalized BRET, Bio rep 1-3): 97.7%
remaining activity at 0.001514 µM ([11]; HEK293, log([compound]), uM -2.82, vehicle = 100, read-out: Normalized BRET, Bio rep 1-3): 102%
remaining activity at 0.0005129 µM ([11]; HEK293, log([compound]), uM -3.29, vehicle = 100, read-out: Normalized BRET, Bio rep 1-3): 107%
remaining activity at 0.0001698 µM ([11]; HEK293, log([compound]), uM -3.77, vehicle = 100, read-out: Normalized BRET, Bio rep 1-3): 102%
EC50 ([11]; NanoBRET EC50 (95% CI, nM)): 467 nM
EC50 ([12]; EC50, [MTA] 0 μM, HEK293, 30 nM CBH-002): 348 nM
EC50 ([12]; EC50, nM (MTA = 0), Global/Schild fit, HEK293): 365 nM
Schild slope ([12]; HEK293): 1.1 (0.93 - 1.31)
A2 (concentration of MTA needed to shift the dose response curve by a factor of 2) ([12]; Global/Schild fit, HEK293): 61 (46-79) M
Right-shift in binding/potency on addition of MTA [12]: 6 fold
EC50 fold change (EC50 at 300 μM MTA versus vehicle) ([12]; HEK293): 6 and 6.1
Hill slope ([12]; [MTA] 0 μM, HEK293): 0.62
Hill slope ([12]; [MTA] 11.11 μM, HEK293): 0.55
Hill slope ([12]; [MTA] 100 μM, HEK293): 0.62
Hill slope ([12]; [MTA] 300 μM, HEK293): 0.64
Hill slope (Global/Schild fit) [12]: 0.55 (0.51 - 0.59)
SMILES: Nc1ncnc2c1ccn2[C@@H]1O[C@H]([C@H](O)c2ccccc2)[C@@H](O)[C@H]1O [LLY-283]
IC50 [8]: 22 nM
Kd [9]: 6000 pM
EC50 [10]: 25 nM

remaining activity at […] ([11]; HEK293, log([compound]), uM -0.48, vehicle = 100, read-out: Normalized BRET, Bio rep 1-3): 0.95%
remaining activity at 0.1122 µM ([11]; HEK293, log([compound]), uM -0.95, vehicle = 100, read-out: Normalized BRET, Bio rep 1-3): 2.4%
remaining activity at 0.03715 µM ([11]; HEK293, log([compound]), uM -1.43, vehicle = 100, read-out: Normalized BRET, Bio rep 1-3): 5.9%
remaining activity at […] ([11]; HEK293, log([compound]), uM -1.91, vehicle = 100, read-out: Normalized BRET, Bio rep 1-3): 11.6%
remaining activity at 0.004074 µM ([11]; HEK293, log([compound]), uM -2.39, vehicle = 100, read-out: Normalized BRET, Bio rep 1-3): 22.9%
remaining activity at 0.00138 µM ([11]; HEK293, log([compound]), uM -2.86, vehicle = 100, read-out: Normalized BRET, Bio rep 1-3): 51.1%
remaining activity at 0.0004571 µM ([11]; HEK293, log([compound]), uM -3.34, vehicle = 100, read-out: Normalized BRET, Bio rep 1-3): 72.7%
remaining activity at 0.0001514 µM ([11]; HEK293, log([compound]), uM -3.82, vehicle = 100, read-out: Normalized BRET, Bio rep 1-3): 89%
remaining activity at 51.29 pM ([11]; HEK293, log([compound]), uM -4.29, vehicle = 100, read-out: Normalized BRET, Bio rep 1-3): 98.4%
remaining activity at 16.98 pM ([11]; HEK293, log([compound]), uM -4.77, vehicle = 100, read-out: Normalized BRET, Bio rep 1-3): 102%
EC50 ([11]; read-out: NanoBRET EC50 (95% CI)): 1.7 nM
Schild slope ([12]; HEK293): 1.15 (0.88 - 1.51)
A2 (concentration of MTA needed to shift the dose response curve by a factor of 2) ([12]; Global/Schild fit, HEK293): 172 (137 – 211) M
Right-shift in binding/potency on addition of MTA [12]: 3 fold
EC50 fold change (EC50 at 300 μM MTA versus vehicle) ([12]; HEK293): 3 and 2.8
Hill slope ([12]; [MTA] 0 μM, HEK293): 0.97
Hill slope ([12]; [MTA] 11.11 μM, HEK293): 0.99
Hill slope ([12]; [MTA] 100 μM, HEK293): 0.79
Hill slope ([12]; [MTA] 300 μM, HEK293): 0.76
Hill slope (Global/Schild fit) [12]: 1
SMILES: Nc1ncnc2c1ccn2C1OC(C(O)c2ccccc2)C(O)C1O (centres unmarked) [PF-06939999]
Kd [13]: 5.8 pM
IC50 [14]: 1.1 nM
